Assay results published in ChEMBL document CHEMBL1201862, “PubChem BioAssay data set” (2004).
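Cells were grown in 96-well plates and exposed to each compound for 48 hours at five concentrations; endpoints were interpolated linearly between bracketing concentrations, or set to the highest concentration if not reached. Here, GI50 denotes the concentration required for 50% inhibition of growth.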 Activity calls are given as the source filed them. Rule as the data show it: active = GI50 up to about 1.1 µM and inactive = higher.

Experiments:
Test in all cases: inhibition of tumour cell growth, NCI panel, 48 h
KM12 = system: KM12
SNB-19 = system: SNB-19
OVCAR-8 = system: OVCAR-8
MDA-MB-435 = system: MDA-MB-435
NCI-H460 = system: NCI-H460
MOLT-4 = system: MOLT-4
OVCAR-4 = system: OVCAR-4
NCI-H522 = system: NCI-H522
NCI-H23 = system: NCI-H23
BT-549 = system: BT-549
SK-MEL-5 = system: SK-MEL-5
PC-3 = system: PC-3
NCI-H226 = system: NCI-H226
COLO 205 = system: COLO 205
RXF 393 = system: RXF 393
SK-OV-3 = system: SK-OV-3
SF-295 = system: SF-295
SF-268 = system: SF-268
HOP-92 = system: HOP-92
HCC 2998 = system: HCC 2998
A498 = system: A498
SNB-75 = system: SNB-75
HOP-62 = system: HOP-62
SF-539 = system: SF-539
SW-620 = system: SW-620
NCI/ADR-RES = system: NCI/ADR-RES
UO-31 = system: UO-31
HCT-15 = system: HCT-15
RPMI-8226 = system: RPMI-8226
MDA-N = system: MDA-N
EKVX = system: EKVX
IGROV-1 = system: IGROV-1
SN12C = system: SN12C
MCF7 = system: MCF7
LOX IMVI = system: LOX IMVI
M14 = system: M14
K562 = system: K562
786-0 = system: 786-0
MDA-MB-231 = system: MDA-MB-231
SK-MEL-28 = system: SK-MEL-28
SK-MEL-2 = system: SK-MEL-2
TK-10 = system: TK-10
A549 = system: A549
U-251 = system: U-251
OVCAR-3 = system: OVCAR-3
T47D = system: T47D
UACC-257 = system: UACC-257
CCRF-CEM = system: CCRF-CEM
OVCAR-5 = system: OVCAR-5
ACHN = system: ACHN
HCT-116 = system: HCT-116
CAKI-1 = system: CAKI-1
UACC-62 = system: UACC-62
DU-145 = system: DU-145
HT-29 = system: HT-29
SR = system: SR

`CC(C)(C)C(=O)Nc1c(C=O)ccc2[nH]cnc12` was tested, and the GI50 (KM12) was 80.4 µM (inactive), the GI50 (SNB-19) was > 100 µM (inactive) and the GI50 (OVCAR-8) was > 100 µM (inactive). The GI50 (MDA-MB-435) was > 100 µM (inactive), the GI50 (NCI-H460) was > 100 µM (inactive) and the GI50 (MOLT-4) was 30.5 µM (inactive). For the same compound, the GI50 (OVCAR-4) was > 100 µM (inactive), the GI50 (NCI-H522) was > 100 µM (inactive) and the GI50 (NCI-H23) was > 100 µM (inactive). The GI50 (BT-549) was > 100 µM (inactive), the GI50 (SK-MEL-5) was 78.7 µM (inactive) and the GI50 (PC-3) was 74.3 µM (inactive). The GI50 (NCI-H226) was > 100 µM (inactive), the GI50 (COLO 205) was > 100 µM (inactive) and the GI50 (RXF 393) was > 100 µM (inactive). For the same compound, the GI50 (SK-OV-3) was > 100 µM (inactive), the GI50 (SF-295) was > 100 µM (inactive) and the GI50 (SF-268) was > 100 µM (inactive). The GI50 (HOP-92) was > 100 µM (inactive), the GI50 (HCC 2998) was > 100 µM (inactive) and the GI50 (A498) was > 100 µM (inactive). For the same compound, the GI50 (SNB-75) was > 100 µM (inactive), the GI50 (HOP-62) was 61.8 µM (inactive) and the GI50 (SF-539) was > 100 µM (inactive). The GI50 (SW-620) was > 100 µM (inactive), the GI50 (NCI/ADR-RES) was > 100 µM (inactive) and the GI50 (UO-31) was > 100 µM (inactive). The GI50 (HCT-15) was greater than 100 µM, the GI50 (RPMI-8226) was 89.9 µM (inactive) and the GI50 (MDA-N) was > 100 µM (inactive). The GI50 (EKVX) was > 100 µM (inactive), the GI50 (IGROV-1) was > 100 µM (inactive) and the GI50 (SN12C) was > 100 µM (inactive). The GI50 (MCF7) was 60.1 µM (inactive), the GI50 (LOX IMVI) was 62.8 µM (inactive) and the GI50 (M14) was > 100 µM (inactive). The GI50 (K562) was 42.8 µM (inactive), the GI50 (786-0) was > 100 µM (inactive) and the GI50 (MDA-MB-231) was > 100 µM (inactive). For the same compound, the GI50 (SK-MEL-28) was > 100 µM (inactive), the GI50 (SK-MEL-2) was > 100 µM (inactive) and the GI50 (TK-10) was > 100 µM (inactive). The GI50 (A549) was > 100 µM (inactive), the GI50 (U-251) was 82.4 µM (inactive) and the GI50 (OVCAR-3) was 80.9 µM (inactive). For the same compound, the GI50 (T47D) was > 100 µM (inactive), the GI50 (UACC-257) was 91.4 µM (inactive) and the GI50 (CCRF-CEM) was 33.3 µM (inactive). The GI50 (OVCAR-5) was > 100 µM (inactive), the GI50 (ACHN) was > 100 µM (inactive) and the GI50 (HCT-116) was > 100 µM (inactive). The GI50 (CAKI-1) was 75.7 µM (inactive).

`CCOC(OCC)[C@@H]1C[C@@H]2N(O[C@H](OC3CCCC3(c3ccccc3)c3ccccc3)[C@H](OC(C)=O)[C@@]2(CC)Cc2ccc(OC)c(OC)c2)O1` (some centres undefined) was tested, and the GI50 (KM12) was > 100 µM (inactive), the GI50 (SNB-19) was > 100 µM (inactive) and the GI50 (MDA-MB-435) was > 100 µM (inactive). The GI50 (NCI-H460) was > 100 µM (inactive), the GI50 (UACC-62) was > 100 µM (inactive) and the GI50 (MOLT-4) was > 100 µM (inactive). The GI50 (OVCAR-4) was > 100 µM (inactive), the GI50 (NCI-H522) was > 100 µM (inactive) and the GI50 (NCI-H23) was > 100 µM (inactive). The GI50 (BT-549) was > 100 µM (inactive), the GI50 (SK-MEL-5) was > 100 µM (inactive) and the GI50 (PC-3) was > 100 µM (inactive). For the same compound, the GI50 (NCI-H226) was > 100 µM (inactive), the GI50 (COLO 205) was > 100 µM (inactive) and the GI50 (RXF 393) was > 100 µM (inactive). The GI50 (SK-OV-3) was > 100 µM (inactive), the GI50 (SF-295) was > 100 µM (inactive) and the GI50 (SF-268) was > 100 µM (inactive). The GI50 (HCC 2998) was > 100 µM (inactive), the GI50 (SNB-75) was > 100 µM (inactive) and the GI50 (HOP-62) was > 100 µM (inactive). For the same compound, the GI50 (SF-539) was > 100 µM (inactive), the GI50 (SW-620) was > 100 µM (inactive) and the GI50 (NCI/ADR-RES) was > 100 µM (inactive). The GI50 (UO-31) was > 100 µM (inactive), the GI50 (HCT-15) was greater than 100 µM and the GI50 (DU-145) was > 100 µM (inactive). The GI50 (MDA-N) was > 100 µM (inactive), the GI50 (EKVX) was > 100 µM (inactive) and the GI50 (IGROV-1) was > 100 µM (inactive). For the same compound, the GI50 (SN12C) was > 100 µM (inactive), the GI50 (MCF7) was > 100 µM (inactive) and the GI50 (LOX IMVI) was > 100 µM (inactive). For the same compound, the GI50 (HT-29) was > 100 µM (inactive), the GI50 (M14) was > 100 µM (inactive) and the GI50 (K562) was > 100 µM (inactive). The GI50 (786-0) was > 100 µM (inactive), the GI50 (MDA-MB-231) was > 100 µM (inactive) and the GI50 (SK-MEL-28) was > 100 µM (inactive). For the same compound, the GI50 (SK-MEL-2) was > 100 µM (inactive), the GI50 (TK-10) was > 100 µM (inactive) and the GI50 (A549) was > 100 µM (inactive). For the same compound, the GI50 (U-251) was > 100 µM (inactive), the GI50 (OVCAR-3) was > 100 µM (inactive) and the GI50 (SR) was 84.7 µM (inactive). For the same compound, the GI50 (T47D) was > 100 µM (inactive), the GI50 (UACC-257) was > 100 µM (inactive) and the GI50 (CCRF-CEM) was > 100 µM (inactive). For the same compound, the GI50 (OVCAR-5) was > 100 µM (inactive), the GI50 (ACHN) was > 100 µM (inactive) and the GI50 (HCT-116) was > 100 µM (inactive). The GI50 (CAKI-1) was > 100 µM (inactive).
